Measurements from US20260137676A1 (priority 2022, published 2026).
Read-outs that look alike come from different tables or passages of the source.

How the values were obtained:
[1] = Solubility determination of salt forms of the compounds (10 mg, ultrapure water added incrementally); type: physicochemical; conditions: 10 mg of the salt form, 25° C.±2° C., class = water volume used
Experimental: A weighed amount of 10 mg of the compound's salt form was placed in a vessel at 25° C.±2° C. Ultrapure water was added incrementally. The mixture was vigorously shaken for 30 seconds every 5 minutes and observed for 30 minutes. When no undissolved particles or droplets remained in the test system, the water solubility of the salt form was recorded according to the following criteria: • A: Water volume used is less than 0.1 mL; • B: Water volume used is greater than or equal to 0.1 mL and less than 1.0 mL; • C: Water volume used is greater than or equal to 1.0 mL and less than 5.0 mL.

SD rats [2] = conditions: tail vein, ratio of minimum lethal dose to minimum effective anesthetic dose
Experimental: SD rats were used, with a single intravenous injection via the tail vein (administration rate of 0.02 ml/s and administration volume of 0.5-1.0 ml per 100 g body weight) in the experiment. The initial dose of the test compound started at 4ED50, and the actual administration dose was calculated based on the body weight measured before the test for each animal. The increase or decrease in subsequent doses was determined based on the results of the experimental animals (whether death occurred). The dose at which death first occurred was determined as the minimum lethal dose. […] The approximate therapeutic index is further classified as: A when the index is ≥5; B when the index is <5 but ≥3; and C when the index is <3.

SD rats [3] = assay: Anesthetic effect (minimum effective anesthetic dose, LORR) after single tail vein injection in rats; type: in vivo
Experimental: The dose at which the LORR first occur was determined as the minimum effective anesthetic dose. The minimum effective anesthetic dose is further classified as: A≤5 mg/kg; 5 mg/kg<B≤10 mg/kg; 10 mg/kg<C≤20 mg/kg; D>20 mg/kg in this invention.
The Up and down method was used to determine the ED50 of the compound causing the LORR. […] After observing five consecutive consistent directional changes in LORR occurrence and recovery, the ED50 was calculated using the Dixon-Mood formula. After determining the ED50, the onset time, duration of anesthesia, and emergence time of anesthesia were determined at an injection dose of 2ED50.
In the above experiments, in addition to recording the dose at which the LORR occurred, the onset time and emergence time of anesthesia, the duration of the LORR, and the duration of sedative effects could also be recorded. Meanwhile, circulatory effects experiments can be added to observe the effects of the compound on circulation and respiration in rats.

[4] = intravenous injection; compared to propofol; cited from earlier work
[5] = type: physicochemical
Experimental: Compound A6S (1 eq) was dissolved in Et2O (2 mL) at room temperature, and the corresponding acid (2 eq) was dissolved in Et2O (NO.1-NO.4) or MeOH (NO.5-NO.10). The above acid solution was slowly added to the reaction system containing Compound A6S using a syringe. NO.1-NO.3 was mixed and stirred at room temperature for 1 hour, and NO.5-NO.10 was mixed and stirred at room temperature for 16 hours. The mixture was filtered under suction to get the solid, then the solid was washed with Et2O, and dried to obtain the corresponding salt form of Compound A6S. Then, the solubility of each salt form was tested in ultrapure water.

[6] = well-known to those skilled in the art; cited from earlier work
[7] = vehicle DMSO: A3 31.8%, A14 66.7%, A17 79.2%, A21S 66.7%, A23 60%, A24 82.8%
[8] = vehicle DMSO: A3 31.8%, A14 66.7%, A17 79.2%, A21S 66.7%, A23 60%, A24 82.8%, A25S 70%
[9] = vehicle Pure water, sulfate salts

| SMILES | Solubility [1] | Minimal effective anesthetic dose (SD rats [3]; [8]) | Minimal effective anesthetic dose (SD rats [3]; [9]) | Onset time (SD rats [3]; [9]) [min] | Righting Reflex Duration (SD rats [3]; [9]) [min] | Sedation Duration (SD rats [3]; [9]) [min] | other results |
| --- | --- | --- | --- | --- | --- | --- | --- |
| CC(C)c1cc(N2CCN(CC(=O)OC3COC3)CC2)cc([C@H](C)C2CC2)c1O [Compound A8] | B (B: Water volume used is greater than or equal to 0.1 mL and less than 1.0 mL) | – | – | – | – | – | – |
| COC(=O)CC(=O)N1CCN(c2cc(C(C)C)c(O)c([C@H](C)C3CC3)c2)CC1 [Compound A3] | C (C: Water volume used is greater than or equal to 1.0 mL and less than 5.0 mL) | C (10 mg/kg<C≤20 mg/kg) | – | – | – | – | Approximate therapeutic index (SD rats [2]; vehicle DMSO: A3 31.8%, A17 79.2%): B (B when the index is <5 but ≥3); Onset time (SD rats [3]; [7]): 0.37 to 0.52 min; Righting Reflex Duration (SD rats [3]; [7]): 1.02 to 2.08 min; Sedation Duration (SD rats [3]; [7]): 6.65 to 8.50 min |
| CC(C)c1cc(N2CCN(CCO)CC2)cc([C@H](C)C2CC2)c1O [Compound A7] | B (B: Water volume used is greater than or equal to 0.1 mL and less than 1.0 mL) | – | – | – | – | – | – |
| CCOC(=O)C(C1CC1)N1CCN(c2cc(C(C)C)c(O)c([C@H](C)C3CC3)c2)CC1 (stereo partly shown) [Compound A26] | A (A: Water volume used is less than 0.1 mL) | – | A (A≤5 mg/kg) | 0.42 to 0.43 | 7.03 to 10.48 | 14.75 to 21.28 | – |
| COC(=O)[C@H](C)[N+]1(C)CCN(c2cc(C(C)C)c(O)c([C@H](C)C3CC3)c2)CC1 [Compound A25S] | – | D (D>20 mg/kg) | – | – | – | – | – |
| CC(C)c1cc(N2CCN([C@@H](C)C(=O)OC(C)(C)C)CC2)cc(C(C)C)c1O [Compound A21S] | – | B (5 mg/kg<B≤10 mg/kg) | – | – | – | – | Onset time (SD rats [3]; [7]): 0.25 to 0.42 min; Righting Reflex Duration (SD rats [3]; [7]): 12.02 to 22.80 min; Sedation Duration (SD rats [3]; [7]): 28.72 to 56.33 min |
| COC(=O)[C@H](C)N1CCN(c2cc(C(C)C)c(O)c(C(C)C)c2)CC1 [Compound A20S] | – | – | B (5 mg/kg<B≤10 mg/kg) | 0.18 to 0.43 | 2.18 to 7.48 | 15.75 to 23.72 | – |
| CC(C)c1cc(N2CCN(CC(=O)OC(C)(C)C)CC2)cc(C(C)C)c1O [Compound A17] | – | A (A≤5 mg/kg) | – | – | – | – | Onset time (SD rats [3]; [7]): 0.15 to 0.63 min; Righting Reflex Duration (SD rats [3]; [7]): 3.67 to 9.38 min; Sedation Duration (SD rats [3]; [7]): 24.42 to 35.32 min |
| CC(C)c1cc(N2CCN(CC(=O)O)CC2)cc([C@H](C)C2CC2)c1O [Compound A15] | A (A: Water volume used is less than 0.1 mL) | – | D (D>20 mg/kg) | – | – | – | – |
| CC(C)c1cc(N2CCN(CC(=O)OC(C)(C)C)C3(CC3)C2)cc([C@H](C)C2CC2)c1O [Compound A18] | – | – | B (5 mg/kg<B≤10 mg/kg) | 0.23 to 0.98 | 3.02 to 19.25 | 16.47 to 35.57 | – |
| CC[C@@H](C(=O)OC)N1CCN(c2cc(C(C)C)c(O)c([C@H](C)C3CC3)c2)CC1 [Compound A22S] | A (A: Water volume used is less than 0.1 mL) | – | – | – | – | – | – |
| CC(C)c1cc(N2CCN([C@@H](C)C(=O)OC(C)(C)C)CC2)cc([C@H](C)C2CC2)c1O [Compound A19S] | – | – | B (5 mg/kg<B≤10 mg/kg) | 0.70 to 0.98 | 2.21 to 5.57 | 14.55 to 21.30 | – |
| COC(=O)C(C1CC1)N1CCN(c2cc(C(C)C)c(O)c([C@H](C)C3CC3)c2)CC1 (stereo partly shown) [Compound A24] | C (C: Water volume used is greater than or equal to 1.0 mL and less than 5.0 mL) | B (5 mg/kg<B≤10 mg/kg) | – | – | – | – | Onset time (SD rats [3]; [7]): 0.17 to 0.18 min; Righting Reflex Duration (SD rats [3]; [7]): 5.53 to 9.67 min; Sedation Duration (SD rats [3]; [7]): 19.33 to 38.80 min |
| CC(C)c1cc(N2CCN(CC(=O)OC(C)(C)C)CC2)cc([C@H](C)C2CC2)c1OCC(=O)OC(C)(C)C [Compound A14] | – | C (10 mg/kg<C≤20 mg/kg) | – | – | – | – | Onset time (SD rats [3]; [7]): 0.18 to 1.63 min; Righting Reflex Duration (SD rats [3]; [7]): 1.95 to 11.67 min; Sedation Duration (SD rats [3]; [7]): 19.40-28.45- min |
| COC(=O)CN1CC2CCC(C1)N2c1cc(C(C)C)c(O)c([C@H](C)C2CC2)c1 [Compound A12] | A (A: Water volume used is less than 0.1 mL) | – | C (10 mg/kg<C≤20 mg/kg) | 0.50 to 0.77 | 1.22 to 7.40 | 9.90 to 34.25 | Approximate therapeutic index (SD rats [2]; vehicle Pure water): A (A when the index is ≥5) |
| COC(=O)CN1CCN(c2cc(C(C)C)c(O)c([C@H](C)C3CC3)c2)CC12CC2 [Compound A11] | – | – | C (10 mg/kg<C≤20 mg/kg) | 0.12 to 0.27 | 0.68 to 3.12 | 12.05 to 14.53 | – |
| CC(C)c1cccc(C(C)C)c1OCOP(=O)(O)O [fospropofol disodium, Fospropofol disodium] | – | – | – | – | – | – | Onset time [4]: up to 2.9 minutes |
| CC(C)c1cc(N2CCN(CC(=O)OC(C)(C)C)CC2)cc([C@H](C)C2CC2)c1O [Compound A13] | A (A: Water volume used is less than 0.1 mL) | – | – | – | – | – | – |
| COC(=O)[C@@H](C)N1CCN(c2cc(C(C)C)c(O)c([C@H](C)C3CC3)c2)CC1 [Compound A6R] | – | – | A (A≤5 mg/kg) | 0.15 to 0.70 | 1.72 to 3.82 | 7.02 to 14.77 | – |
| COC(=O)[C@H](C)N1CCN(c2cc(C(C)C)c(O)c([C@H](C)C3CC3)c2)CC1 [Compound A6S] | – | – | B (5 mg/kg<B≤10 mg/kg) | 0.47 to 0.73 | 1.08 to 5.67 | 7.93 to 15.12 | Salt formation (Yes/No) ([5]; A6S with Benzenesulfonic acid (NO.6)): Yes; Salt formation (Yes/No) ([5]; A6S with Hydrochloric acid (NO.1)): Yes; Salt formation (Yes/No) ([5]; A6S with Maleic acid (NO.8)): Yes; Salt formation (Yes/No) ([5]; A6S with Methanesulfonic acid (NO.3)): Yes; Salt formation (Yes/No) ([5]; A6S with Oxalic acid dihydrate (NO.7)): Yes; Salt formation (Yes/No) ([5]; A6S with Phosphoric acid (NO.4)): Yes; Salt formation (Yes/No) ([5]; A6S with Sulfuric acid (NO.2)): Yes; Salt formation (Yes/No) ([5]; A6S with p-Toluenesulfonic acid hydrate (NO.5)): Yes |
| COC(=O)C(C(C)C)N1CCN(c2cc(C(C)C)c(O)c([C@H](C)C3CC3)c2)CC1 (stereo partly shown) [Compound A23] | C (C: Water volume used is greater than or equal to 1.0 mL and less than 5.0 mL) | B (5 mg/kg<B≤10 mg/kg) | – | – | – | – | Onset time (SD rats [3]; [7]): 0.20 to 0.22 min; Righting Reflex Duration (SD rats [3]; [7]): 4.93 to 15.08 min; Sedation Duration (SD rats [3]; [7]): 30.48 to 39.13 min |
| CC(C)c1cccc([C@H](C)C2CC2)c1O [ciprofol] | – | – | – | – | – | – | water solubility [6]: insoluble in water |
| CC(C)c1cccc(C(C)C)c1O [Propofol, reference compound] | – | – | – | – | – | – | Approximate therapeutic index (SD rats [2]; vehicle Lipid emulsion): B (B when the index is <5 but ≥3); water solubility [6]: insoluble in water |
